Key:
[1] = method code SF-AS, from DOI: 10.1021/jm00170a024, PMID: 2374146
[2] = not given; remark: listed apart in the source
[3] = method code SF-AS, from DOI: 10.1016/0378-5173(92)90099-n
[4] = method code SF-AS, from PMID: 10944786; conditions: pH 7.0
[5] = not given; remark: listed apart in the source
[6] = method code SF, from DOI: 10.1021/jm049495j.s001, PMID: 15771458; conditions: pH 12.0
[7] = method code SF-RC, from DOI: 10.1021/es00096a007
[8] = not given; remark: listed apart in the source
[9] = method code SF-RC, from DOI: 10.1002/jlcr.1932; conditions: pH 7.4
[10] = method code SF-AS, from DOI: 10.1016/s0928-0987(01)00170-1, PMID: 11500262; conditions: pH 12.5
[11] = not given; remark: listed apart in the source
[12] = not given; remark: listed apart in the source
[13] = not given; remark: listed apart in the source
[14] = method code SF-AS, from DOI: 10.1213/00000539-199008000-00008, PMID: 2375517
[15] = from Ammermann, E., Loecher, F., Lorenz, G., Janssen, B., Karbach, S., & Meyer, N. (1990). BAS 480 F - a new broad spectrum fungicide. In Brighton Crop Protection Conference, Pests and Diseases - 1990 …; conditions: pH 7.0
[16] = not given; remark: listed apart in the source
[17] = method code SF-RC, from DOI: 10.1016/s0969-8051(99)00046-3, PMID: 10628564; conditions: pH 7.4
[18] = method code SF, from DOI: 10.1007/978-94-011-1472-1_81
[19] = not given; remark: listed apart in the source
[20] = method code SF-AS, from DOI: 10.1016/s0021-9673(00)91570-x; conditions: pH 3.4
[21] = method code SF-RC, from DOI: 10.1016/j.bmc.2005.04.014, PMID: 15911305; conditions: pH 7.4
[22] = not given; remark: listed apart in the source
[23] = not given; remark: listed apart in the source
[24] = not given; remark: listed apart in the source
[25] = method code SF-AS, from DOI: 10.1007/bf02273190
[26] = not given; remark: listed apart in the source
[27] = not given; remark: listed apart in the source
[28] = not given; remark: listed apart in the source
[29] = method code SF-RC, from DOI: 10.1016/j.nucmedbio.2012.01.004, PMID: 22336372; conditions: pH 7.4
[30] = method code SF-GR, from DOI: 10.1021/jm00199a032, PMID: 619145
[31] = method code SF-AS, from DOI: 10.1248/cpb.39.458, PMID: 1829027; conditions: pH 7.0
[32] = method code SF-RC, from DOI: 10.1021/jm070025+, PMID: 17411026; conditions: pH 7.4
[33] = method code SF-AS, from PMID: 3449083
[34] = not given; remark: listed apart in the source
[35] = method code SF-AS, from DOI: 10.1021/jm00254a028, PMID: 4845386
[36] = method code SF-AS, from DOI: 10.1021/jm00099a010, PMID: 1433194; conditions: pH 7.4
[37] = method code SF-LC/MS, from DOI: 10.1021/jm4008714, PMID: 23919803; conditions: pH 7.4
[38] = pH 7.4
[39] = method code SF-RC, from PMID: 14530489; conditions: pH 7.4
[40] = method code SF-AS, from PMID: 872227; conditions: pH 7.2
[41] = not given; remark: listed apart in the source
[42] = not given; remark: listed apart in the source
[43] = not given; remark: listed apart in the source
[44] = method code SF-GLC, from DOI: 10.1556/jpc.23.2010.3.6
[45] = method code SF-AS, from Zsuzsa, H.; Nora, K. (1979). Study on the partition coefficient of acetanilides. Nehezvegyp. Kut. Intez. Kozl., 8, 139-146.
[46] = method code SF-HPLC, from Hairsine, P. (1997). Direct measurement of partition coefficient by shake flask technique and gradient elution HPLC. Lab. Practice, 38(11)73-75.
[47] = not given; remark: listed apart in the source

In the case of `CCOP(=O)(Cc1ccc(-c2nc3ccccc3s2)cc1)OCC`, the logP [1] was 3.5.

Molecule `COc1c(OC)c(OC(C)=O)c2cc(NC(C)=O)ccc2c1OC(C)=O` has a logP of 2.

Molecule `COC1=CC(=NO)CC(C)C12Oc1c(Cl)c(OC)cc(OC)c1C2=O` (stereo not drawn) has a logP [2] of 2.31.

Molecule `CCn1cc(C(=O)O)c(=O)c2cc(F)c(N3CCN(C)CC3)c(F)c21` has a logP [3] of 0.3.

For `CCCCOc1cccc(NC(=O)OCN2CCCCC2)c1`, the logD [4] was 2.97.

Molecule `O=C1/C(=C/c2cccc(Cl)c2)CCCc2ccccc21` has a logP [5] of 5.22.

Work on `c1ccc2c(c1)CCn1ccnc1C21CCNCC1` yielded a logD [6] of 1.18.

Work on `Nc1cc2c3ccccc3ccc2c2ccccc12` yielded a logP [7] of 4.98.

`COC(=O)C1C2CC3CCC1N3CC2=Cc1ccc(I)c(Cl)c1` (stereo not drawn) showed a logP [8] of 4.25.

Work on `O=C(OCC1=CC(=O)c2ccccc2C1=O)c1ccc(F)cc1` yielded a logD [9] of 2.7.

In the case of `CN(C)CCC(c1ccccc1)c1ccccc1`, the logD [10] was 5.4.

Molecule `CC(Oc1ccccc1)C(=O)N[C@@H]1C(=O)N2[C@@H]1SC(C)(C)[C@@H]2C(=O)O` (stereo partly drawn) has a logP [11] of 2.19.

Molecule `Oc1ccc(C23CC4CC(CC(C4)C2)C3)cc1` has a logP [12] of 5.46.

With `c1ccc2c(c1)Cc1c-2ccc2ccccc12` the logP [13] was 5.32.

Work on `CCCN1CCCC[C@H]1C(=O)Nc1c(C)cccc1C` yielded a logP [14] of 2.89.

Work on `Fc1ccc([C@]2(Cn3cncn3)O[C@H]2c2ccccc2Cl)cc1` (stereo in doubt) yielded a logD [15] of 3.44.

Work on `CCCN(CCC)P(=O)(OC(C)CC)c1ccccc1` (stereo not drawn) yielded a logP [16] of 4.13.

`CN1CCN(C(=O)OC2c3nccnc3C(=O)N2c2ccc(I)cn2)CC1` (stereo not drawn) showed a logD [17] of 1.6.

With `Cc1cccc2c1Sc1ccccc1C2NC(=O)CN(C)C` (stereo not drawn) the logP [18] was 3.24.

For `COc1ccc(Sc2ccc(I)cc2N)c(CN(C)C)c1`, the logP [19] was 3.34.

Work on `COc1cc(CC(=O)O)ccc1OCC1CCCCC1` yielded a logD [20] of 3.35.

Work on `Nc1nc(OCc2cccc(I)c2)c2ncn(C3CC(O)C(CO)O3)c2n1` (stereo not drawn) yielded a logD [21] of 1.4.

In the case of `CCCCCCCCCCCCCCOC(=O)C(C)O` (stereo not drawn), the logP [22] was 6.08.

`CN1CC[C@]23c4c5ccc(O)c4O[C@H]2C(=O)CC[C@@]3(O)[C@H]1C5` gave a logP [23] of 0.67.

`Clc1ccc(COC(Cn2ccnc2)c2ccc(Cl)cc2Cl)c(Cl)c1` (stereo not drawn) gave a logP [24] of 5.81.

`CCCCCCC(=O)N(C)c1ccc(S(=O)(=O)N(C)C)cc1` showed a logP [25] of 2.61.

For `c1ccc(C2=NOC3COC(c4ccccc4)OCC23)cc1` (stereo not drawn), the logP [26] was 3.42.

With `CN1CCN2c3ccccc3Cc3ccccc3C2C1` (stereo not drawn) the logP [27] was 4.

In the case of `Cc1cc2c(s1)Nc1ccccc1N=C2N1CCN(C)CC1`, the logP [28] was 3.

In the case of `C#CCN(CCF)c1ccc(S(=O)c2ccc([N+](=O)[O-])cc2)cc1` (stereo not drawn), the logD [29] was 2.6.

Molecule `S=P(NN=Cc1ccccn1)(NN=Cc1ccccn1)Oc1ccccc1` has a logP [30] of 1.62.

With `CCCC(=O)OC[C@H]1O[C@@H](n2cc(F)c(=O)[nH]c2=O)C[C@@H]1OC(=O)CCC` the logD [31] was 1.9.

Work on `CN(C)c1ccc(/C=C/c2cnc(OCCO)c(I)c2)cc1` yielded a logD [32] of 2.64.

For `CN1C=CCC(C(=O)OC2CCC(NC(=O)N(CCCl)N=O)CC2)=C1` (stereo not drawn), the logP [33] was 2.53.

`CCCCCCCC(=O)N[C@@H]1C(=O)N2[C@@H]1SC(C)(C)[C@@H]2C(=O)O` gave a logP [34] of 3.32.

`NC(=O)OC1c2ccccc2C2CCCCC2C1OC(N)=O` (stereo not drawn) gave a logP [35] of 2.17.

With `CN1CCN(Cc2ccc(C(=O)c3csc(S(N)(=O)=O)c3)cc2)CC1` the logD [36] was 0.37.

With `Cn1c(=O)nc(-c2ccccc2)c2oc3ccccc3c21` the logD [37] was 2.8.

Work on `CCCCSCS(=O)CC(CO)NC(=O)C=Cc1c(C)[nH]c(=O)[nH]c1=O` (stereo not drawn) yielded a logD [38] of 0.14.

For `CS(=O)(=O)c1ccc(-c2ccsc2-c2ccc(F)cc2)cc1`, the logD [39] was 3.72.

`CCCOc1ccc(NC(=O)OCCN2CCOCC2)c(C)c1` showed a logD [40] of 2.21.

With `CC1C=COC1C(=O)Nc1cccc(-c2nc3ncccc3o2)c1` (stereo not drawn) the logP [41] was 2.9.

`CCCCC(CC)COC(=O)c1ccc(N(C)C)cc1` (stereo not drawn) gave a logP [42] of 6.6.

`CCCCCCNC(=O)CNC(=O)OCc1ccccc1` gave a logP [43] of 3.7.

Work on `CCCCCCCCCCCCCCCCO` yielded a logP [44] of 7.

With `CC(Cl)C(=O)N(CC(=O)Nc1ccccc1)c1ccccc1` (stereo not drawn) the logP [45] was 3.02.

Molecule `O=C(CCNNC(=O)c1ccncc1)NCc1ccccc1` has a logP [46] of 0.83.

`O=C(O)c1cc(/N=N/c2ccc(S(=O)(=O)Nc3ccccn3)cc2)ccc1O` showed a logP [47] of -0.13.

— the SangsterLogP compilation
